# Experimental data from paper PMC11648822, “Lactam Truncation Yields a Dihydroquinazolinone Scaffold with Potent Antimalarial Activity that Targets PfATP4” (Chemmedchem, 2024).
# “And” between values parts separate entries of the source, which are not always exact repeats. Identical values can stand only once.
# Test system: P. berghei ANKA
# Assay: P. berghei 4-day mouse model
# Format: in vivo
# Conditions: 20 mg/kg p.o. q.d. at 2, 24, 48, 72 h
# Description: In this model, mice are infected with P. berghei ANKA asexual blood stage parasites. Compounds are then administered by oral gavage at 20 mg/kg 2, 24, 48, and 72 hours after the parasite infection.
# Each day, a fresh aliquot of the compound stock was diluted 1/10 in water for administration to mice. 8 week old female mice (Ozgene) on day 0 were infected with 2×10^7 P. berghei ANKA‐infected erythrocytes. […] 2 mice were also dosed with artesunate using the same regime at 30 mg/kg. The parasitemia of mice was assessed by visualizing Giemsa‐stained thin blood smears by microscopy and a minimum of 1000 RBCs were counted. To calculate the percent antimalarial activity the following formula was used: 100 ‐ (mean parasitemia treated day 4 post‐infection/mean parasitemia vehicle control day 4 post‐infection)×100. Mice were culled the day following the last oral gavage.
# Briefly, ‘donor’ female Swiss mice were infected intraperitoneally (IP) with blood stage P. berghei parasites constitutively expressing GFP (P. berghei ANKA GFPcon 259cl2).[36] Three days later, groups of 3 ‘acceptor’ Swiss mice were infected intravenously with 1 x 10^7 parasitised red blood cells from the ‘donor mice’. […] Control mice were left untreated. Peripheral blood samples were taken 24 h after administration of the last dose, and parasitemia was measured by flow cytometry (proportion of GFP‐positive cells in 100,000 recorded events using Attune Nxt, ThermoFisher) and microscopic analysis of Giemsa‐stained blood smears. Parasitemia values were averages of 3 mice per group.
smiles,measurement,setting,value
"CN1C(=O)c2ccc(-n3cccn3)cc2NC1(C)C(=O)Nc1cncc(Cl)c1 (centres unmarked) [Compound 33, N‐(5‐Chloropyridin‐3‐yl)‐2,3‐dimethyl‐4‐oxo‐7‐(1H‐pyrazol‐1‐yl)‐1,2,3,4‐tetrahydroquinazoline‐2‐carboxamide]",% parasitemia,day 4,12.8%
same,% reduction in parasitemia,"day 4, versus control",46% and 46.7%
